Laboratory results taken from patent US7888380B2, “1,2,4-Triazolylaminoaryl (heteroaryl) sulfonamide derivatives” (Janssen Pharmaceutica, N.V., priority 2004, dated 2011).
Where two headings read alike, the source gives them in different places.

Legend:
CDK2:Cyclin-E = CDK2:Cyclin-E (Homo sapiens, UniProt P24941); experiment: CDK2 Screening Assay (33P-ATP FlashPlate); assay type: biochemical; conditions: 10 μM ATP; >10 or >100 = less than 50% inhibition at highest concentration tested
Description: A kinase reaction mixture was prepared containing 50 mM Tris-HCl pH=8, 10 mM MgCl2, 0.1 mM Na3PO4, 1 mM DTT, 10 μM ATP, 0.025 μM biotinylated histone-H1 peptide substrate and 0.2 μCuries per well ^33P-γ-ATP (2000-3000 Ci/mmol). 70 μL of the kinase reaction mixture was dispensed into the well of a streptavidin coated FlashPlate™ (Cat. # SMP103, NEN, Boston, Mass.). Then 1 μL of test compound stock in 100% DMSO was added to the wells resulting in a final concentration of 1% DMSO in the reaction with a 100 μl final reaction volume. Next, CDK2:Cyclin-E protein was diluted in 50 mM Tris-HCl pH=8.0, 0.1% BSA at a concentration of 1 ng per μL and 30 μL (30 ng enzyme per test well) was added to each well to initiate the reaction. The reaction was incubated for one hour at 30° C. At the end of the 1 h incubation, the reaction was terminated by aspirating the mixture from the plate and washing the wells twice with PBS containing 100 mM EDTA. The histone-H1 biotinylated peptide substrate became immobilized on the Flashplate™ and the incorporation of ^33P-γ-ATP was measured by reading the plate on a scintillation counter. Inhibition of the enzymatic activity of CDK2 was measured by observing a reduced amount of ^33P-γ-ATP incorporated into the immobilized peptide. […]

[1] = tested on: HeLa cervical adenocarcinoma; experiment: Inhibition of cell proliferation (14C-thymidine incorporation), HeLa; assay type: cell-based; conditions: Homo sapiens
Description: The ability of a test compound to inhibit the proliferation of cell growth was determined by measuring incorporation of ^14C-labelled thymidine into newly synthesized DNA within the cells. This method was used on cell lines derived from carcinomas originating from several tissues such as HeLa cervical adenocarcinoma (American Type Culture Collection (ATCC), Virginia, Cat. #CCL-2), A375 malignant melanoma (ATCC CRL-1619), and HCT-116 colon carcinoma (CCL-247). In this way the effect of a compound on cell growth of cells with many different phenotypes can be determined. Cells were trypsinized and counted and 3000-8000 cells were added to each well of a 96-well CytoStar tissue culture treated scintillating microplate (Amersham #RPNQ0160) in complete medium in a volume of 100 μl. Cells were incubated for 24 hours in complete medium at 37° C. in an atmosphere containing 5% CO2.
Next, 1 μl of test compound in 100% DMSO was added to the wells of the plate. DMSO only was added to control wells. Cells were incubated for 24 more hours in complete medium at 37° C. in an atmosphere containing 5% CO2. Methyl ^14C-thymidine 56 mCi/mmol (NEN #NEC568 or Amersham #CFA532) was diluted in complete medium and 0.2 uCi/well was added to each well of the CytoStar plate in a volume of 20 ul. The plate was incubated for 24 hours at 37° C. plus 5% CO2 in drug plus ^14C-thymidine. The contents of the plate were discarded into a ^14C radioactive waste container by inverting the plate and the plate was washed twice with 200 μl PBS.
200 μl of PBS was added to each well. The top of the plate was sealed with a transparent plate sealer and a white plate backing sealer (Packard #6005199) was applied to the bottom of the plate. The degree of methyl ^14C-thymidine incorporation was quantified on a Packard Top Count.

[2] = Standard Rat Pharmacokinetics (PK); assay type: in vivo; conditions: for bioavailability: plasma, rat, Dose(IV)*AUC(oral)/Dose(oral)*AUC(IV); for Cmax: rat plasma
Description: The conversion of prodrug to active form was evaluated using a standard rat PK protocol. The following procedure may be followed.
Rats were dosed intravenously (IV) at the level of 1.5-3 mg/kg and by oral gavage (PO) at the level of 10-30 mg/kg with prodrug candidate. For each study, four rats were used for IV dosing and four rats were used for PO dosing. Prodrug was typically formulated for IV dosing as a solution in 10% W/V solutol in 5% dextrose in sterile water vehicle (D5W). Prodrug was typically formulated for oral dosing as a uniform suspension in 0.5% methylcellulose vehicle. Blood samples (0.5 mL) were collected into heparinized tubes post dose via orbital sinus puncture. For IV dosing, blood samples were collected at 5, 15 and 30 mins, 1, 2, 4, 6, 8, and 24 hrs after the dosing. For PO dosing, blood samples were collected at 30 mins, 1, 2, 4, 6, 8 and 24 hrs. Blood samples were centrifuged for cell removal, and precisely 200 μL of plasma supernatant was then transferred to a clean vial, placed on dry ice, and subsequently stored in a −70° C. freezer prior to analysis. Results were calculated by WinNonlin Pro version 3.1. Plasma levels were determined and the oral and intravenous area under the concentration vs. time curve (AUC) were compared to determine the % bioavailability (% F) by the following formula: Dose(IV)*AUC(oral)/Dose (oral)*AUC(IV).

[3] = IV 2 mg/kg of prodrug, read-out: Prodrug Cmax (μM) IV
[4] = PO 10 mg/kg of prodrug, read-out: Prodrug Cmax (μM) PO
[5] = IV 3 mg/kg of prodrug, read-out: Prodrug Cmax (μM) IV
[6] = PO 30 mg/kg of prodrug, read-out: Prodrug Cmax (μM) PO

Row | Compound | IC50 (CDK2:Cyclin-E) [µM] | IC50 [1] [µM] | bioavailability ([2]; IV/PO 2/10 mg/kg) [%] | Cmax [2, 3] [µM] | Cmax [2, 4] [µM] | bioavailability ([2]; IV/PO 3/30 mg/kg) [%] | Cmax [2, 5] [µM] | Cmax [2, 6] [µM]
1 | C[C@H](N)C(=O)N[C@@H](C)C(=O)NS(=O)(=O)c1ccc(Nc2nc(N)n(C(=O)c3c(F)cccc3F)n2)cc1.O=C(O)C(F)(F)F.O=C(O)C(F)(F)F.O=C(O)C(F)(F)F [Compound 15, (S)-2-amino-N—((S)-2-{4-[5-amino-1-(2,6-difluoro-benzoyl)-1H-[1,2,4]triazol-3-ylamino]-benzenesulfonylamino}-1-methyl-2-oxo-ethyl)-propionamide 3 TFA salt] | 0.1 | 1.04 | 0 | 31.8 | 0.167 |  |  | 
2 | Nc1nc(Nc2ccc(S(=O)(=O)NC(=O)[C@@H](N)CC(=O)O)cc2)nn1C(=O)c1c(F)cccc1F [Compound 17, (S)-3-amino-4-{4-[5-amino-1-(2,6-difluoro-benzoyl)-1H-[1,2,4]triazol-3-ylamino]-benzenesulfonylamino}-4-oxo-butyric acid] | 0.09 | 58.3 | 0 | 18.3 | 0.1 |  |  | 
3 | CCCCC(=O)NS(=O)(=O)c1ccc(Nc2nc(N)n(C(=O)c3c(F)cccc3F)n2)cc1 [Compound 18, 4-[5-amino-1-(2,6-difluoro-benzoyl)-1H-[1,2,4]triazol-3-ylamino]-N-pentanoyl-benzenesulfonamide] | 0.47 | 81.2 |  |  |  | 0.4 | 134 | 0.41

The next molecules have a lower IC50 (CDK2:Cyclin-E) than those just listed; values first:

Row | IC50 (CDK2:Cyclin-E) [µM] | IC50 [1] [µM] | bioavailability ([2]; IV/PO 2/10 mg/kg) [%] | Cmax [2, 3] [µM] | Cmax [2, 4] [µM] | bioavailability ([2]; IV/PO 3/30 mg/kg) [%] | Cmax [2, 5] [µM] | Cmax [2, 6] [µM] | Compound
4 | 0.05 | 6.89 |  |  |  | 0.41 | 127 | 0.27 | CCCC(=O)NS(=O)(=O)c1ccc(Nc2nc(N)n(C(=O)c3c(F)cccc3F)n2)cc1 [Compound 19, 4-[5-amino-1-(2,6-difluoro-benzoyl)-1H-[1,2,4]triazol-3-ylamino]-N-butyryl-benzenesulfonamide]
5 | 0.03 | 10.2 | 0 | 1.8 |  |  |  |  | Nc1nc(Nc2ccc(S(=O)(=O)NC(=O)[C@@H]3CCCN3)cc2)nn1C(=O)c1c(F)cccc1F [Compound 16, 4-[5-amino-1-(2,6-difluoro-benzoyl)-1H-[1,2,4]triazol-3-ylamino]-N—((S)-pyrrolidine-2-carbonyl)-benzenesulfonamide]
